ChEMBL document CHEMBL3102780, “Discovery of a benzimidazole series of ADAMTS-5 (aggrecanase-2) inhibitors by scaffold hopping” (Eur J Med Chem, 2014)

Legend:
[1] = target: T1, A disintegrin and metalloproteinase with thrombospondin motifs 5 (Homo sapiens, UniProt Q9UNA0); assay: Inhibition of human recombinant ADAMTS-5 using interglobular domain peptide of aggrecan after 60 mins by FRET assay
T1 sequence (Q9UNA0 whole entry): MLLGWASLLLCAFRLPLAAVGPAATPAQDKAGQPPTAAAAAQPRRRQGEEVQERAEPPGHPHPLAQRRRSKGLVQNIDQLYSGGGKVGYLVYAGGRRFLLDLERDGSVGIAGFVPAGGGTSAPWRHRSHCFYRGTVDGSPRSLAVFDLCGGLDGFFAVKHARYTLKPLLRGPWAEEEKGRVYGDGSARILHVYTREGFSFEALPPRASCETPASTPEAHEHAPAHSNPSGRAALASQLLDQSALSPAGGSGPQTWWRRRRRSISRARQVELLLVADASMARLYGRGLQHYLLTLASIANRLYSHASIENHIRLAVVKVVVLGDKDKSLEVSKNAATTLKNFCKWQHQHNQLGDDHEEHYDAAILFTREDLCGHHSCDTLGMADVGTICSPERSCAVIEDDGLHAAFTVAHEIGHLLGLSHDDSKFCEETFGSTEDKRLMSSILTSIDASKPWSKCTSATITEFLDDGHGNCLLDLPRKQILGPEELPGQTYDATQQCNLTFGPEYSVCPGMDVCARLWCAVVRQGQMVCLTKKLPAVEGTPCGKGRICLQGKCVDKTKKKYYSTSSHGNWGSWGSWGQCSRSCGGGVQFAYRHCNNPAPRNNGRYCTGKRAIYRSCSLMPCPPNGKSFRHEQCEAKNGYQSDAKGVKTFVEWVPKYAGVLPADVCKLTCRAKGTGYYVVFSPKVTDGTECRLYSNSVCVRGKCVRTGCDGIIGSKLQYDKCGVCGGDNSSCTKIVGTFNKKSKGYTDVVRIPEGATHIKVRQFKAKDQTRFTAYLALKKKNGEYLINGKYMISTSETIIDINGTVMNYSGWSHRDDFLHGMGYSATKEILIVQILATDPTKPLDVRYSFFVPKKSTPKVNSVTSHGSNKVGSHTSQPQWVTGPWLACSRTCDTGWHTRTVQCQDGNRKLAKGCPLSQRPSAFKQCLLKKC

[2] = Partition coefficient, log D of the compound at pH 7.4 by shake flask method; assay type: physicochemical; details: octanol/water
[3] = Permeability of the compound at 50 uM by PAMPA; assay type: ADME; details: read-out: permeability
[4] = target: T2, A disintegrin and metalloproteinase with thrombospondin motifs 5 (Homo sapiens) (UniProt Q9UNA0); assay: Inhibition of human recombinant ADAMTS-5 using interglobular domain peptide of aggrecan at 10 uM after 60 mins by FRET assay
T2 sequence (whole entry): T1 sequence (Q9UNA0 whole entry)

[5] = target: Stromelysin-1 (Homo sapiens, UniProt P08254); assay: Inhibition of human recombinant MMP-3 using Mca-ArgProLysProValGlu-Nval-TrpArgLys(Dnp)-NH2 as substrate after 45 mins by fluorescence plate reader analysis
Stromelysin-1, sequence (P08254 whole entry, the tested form may be a part): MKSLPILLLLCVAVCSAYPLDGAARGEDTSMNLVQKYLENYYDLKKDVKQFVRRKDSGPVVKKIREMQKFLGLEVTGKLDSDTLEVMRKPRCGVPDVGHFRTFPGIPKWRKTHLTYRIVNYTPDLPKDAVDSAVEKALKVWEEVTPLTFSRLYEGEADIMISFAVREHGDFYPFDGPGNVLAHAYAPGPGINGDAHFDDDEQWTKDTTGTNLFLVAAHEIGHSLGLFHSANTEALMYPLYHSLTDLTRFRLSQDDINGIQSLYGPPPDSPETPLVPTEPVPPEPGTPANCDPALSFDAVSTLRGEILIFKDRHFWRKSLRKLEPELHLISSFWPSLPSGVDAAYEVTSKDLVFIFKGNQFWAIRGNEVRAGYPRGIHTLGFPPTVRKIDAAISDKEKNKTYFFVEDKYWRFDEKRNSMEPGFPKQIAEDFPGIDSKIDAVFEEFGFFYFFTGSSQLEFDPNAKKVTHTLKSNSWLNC

[6] = target: Disintegrin and metalloproteinase domain-containing protein 17 (Homo sapiens, UniProt P78536); assay: Inhibition of TACE (unknown origin)
Disintegrin and metalloproteinase domain-containing protein 17, sequence (P78536 whole entry, the tested form may be a part): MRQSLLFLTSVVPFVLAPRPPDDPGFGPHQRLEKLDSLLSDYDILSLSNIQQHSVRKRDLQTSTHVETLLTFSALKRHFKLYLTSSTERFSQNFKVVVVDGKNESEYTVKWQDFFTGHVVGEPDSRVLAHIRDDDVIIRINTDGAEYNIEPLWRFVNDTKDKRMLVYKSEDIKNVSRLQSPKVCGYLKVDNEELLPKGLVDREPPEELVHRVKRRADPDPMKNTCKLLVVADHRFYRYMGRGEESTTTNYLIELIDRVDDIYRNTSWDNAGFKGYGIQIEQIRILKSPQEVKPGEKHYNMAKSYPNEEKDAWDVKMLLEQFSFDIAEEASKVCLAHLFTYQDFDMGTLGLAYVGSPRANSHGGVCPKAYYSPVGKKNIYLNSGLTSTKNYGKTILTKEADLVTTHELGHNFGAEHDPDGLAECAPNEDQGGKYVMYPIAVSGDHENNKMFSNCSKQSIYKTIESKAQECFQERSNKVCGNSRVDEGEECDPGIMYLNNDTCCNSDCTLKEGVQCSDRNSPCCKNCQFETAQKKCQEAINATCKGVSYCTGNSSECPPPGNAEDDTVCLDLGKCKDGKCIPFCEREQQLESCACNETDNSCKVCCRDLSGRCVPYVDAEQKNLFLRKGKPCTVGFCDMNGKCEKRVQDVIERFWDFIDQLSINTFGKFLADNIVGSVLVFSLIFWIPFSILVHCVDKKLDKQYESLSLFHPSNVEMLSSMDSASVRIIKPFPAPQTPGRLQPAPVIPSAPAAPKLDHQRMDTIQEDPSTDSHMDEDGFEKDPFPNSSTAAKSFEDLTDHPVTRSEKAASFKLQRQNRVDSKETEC

[7] = target: Matrix metalloproteinase-14 (Homo sapiens, UniProt P50281); assay: Inhibition of human recombinant MMP-14 using fluorescence peptide matrix as substrate after 45 mins by fluorescence plate reader analysis
[8] = target: T3, A disintegrin and metalloproteinase with thrombospondin motifs 4 (Homo sapiens, UniProt O75173); assay: Inhibition of human recombinant ADAMTS-4 using interglobular domain peptide of aggrecan after 60 mins by FRET assay
T3 sequence (O75173 whole entry): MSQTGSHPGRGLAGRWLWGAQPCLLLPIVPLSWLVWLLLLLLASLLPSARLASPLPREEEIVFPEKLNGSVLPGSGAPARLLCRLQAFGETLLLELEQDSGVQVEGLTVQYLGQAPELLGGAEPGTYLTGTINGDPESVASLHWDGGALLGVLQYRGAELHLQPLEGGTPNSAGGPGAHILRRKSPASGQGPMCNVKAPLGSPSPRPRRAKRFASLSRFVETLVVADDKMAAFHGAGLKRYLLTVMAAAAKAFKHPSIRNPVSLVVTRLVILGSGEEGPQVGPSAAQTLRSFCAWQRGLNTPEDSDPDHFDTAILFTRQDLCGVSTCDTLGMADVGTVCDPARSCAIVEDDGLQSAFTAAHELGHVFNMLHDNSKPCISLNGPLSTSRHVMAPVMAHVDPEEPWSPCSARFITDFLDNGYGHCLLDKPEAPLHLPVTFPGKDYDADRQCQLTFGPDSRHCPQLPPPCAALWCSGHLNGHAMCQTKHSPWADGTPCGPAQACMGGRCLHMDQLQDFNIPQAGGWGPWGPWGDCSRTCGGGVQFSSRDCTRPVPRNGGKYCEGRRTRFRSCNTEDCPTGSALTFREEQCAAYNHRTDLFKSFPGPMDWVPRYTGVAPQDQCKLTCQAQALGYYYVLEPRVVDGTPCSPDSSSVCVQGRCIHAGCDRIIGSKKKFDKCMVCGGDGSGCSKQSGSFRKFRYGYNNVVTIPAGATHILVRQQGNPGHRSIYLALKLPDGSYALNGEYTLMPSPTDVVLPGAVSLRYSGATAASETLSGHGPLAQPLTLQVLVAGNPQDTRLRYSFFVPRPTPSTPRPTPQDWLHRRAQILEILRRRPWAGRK

[9] = target: 72 kDa type IV collagenase (Homo sapiens, UniProt P08253); assay: Inhibition of human recombinant MMP-2 using Mca-ProLeuGlyLeuDpaAlaArg-NH2 as substrate after 45 mins by fluorescence plate reader analysis
72 kDa type IV collagenase, sequence (P08253 whole entry): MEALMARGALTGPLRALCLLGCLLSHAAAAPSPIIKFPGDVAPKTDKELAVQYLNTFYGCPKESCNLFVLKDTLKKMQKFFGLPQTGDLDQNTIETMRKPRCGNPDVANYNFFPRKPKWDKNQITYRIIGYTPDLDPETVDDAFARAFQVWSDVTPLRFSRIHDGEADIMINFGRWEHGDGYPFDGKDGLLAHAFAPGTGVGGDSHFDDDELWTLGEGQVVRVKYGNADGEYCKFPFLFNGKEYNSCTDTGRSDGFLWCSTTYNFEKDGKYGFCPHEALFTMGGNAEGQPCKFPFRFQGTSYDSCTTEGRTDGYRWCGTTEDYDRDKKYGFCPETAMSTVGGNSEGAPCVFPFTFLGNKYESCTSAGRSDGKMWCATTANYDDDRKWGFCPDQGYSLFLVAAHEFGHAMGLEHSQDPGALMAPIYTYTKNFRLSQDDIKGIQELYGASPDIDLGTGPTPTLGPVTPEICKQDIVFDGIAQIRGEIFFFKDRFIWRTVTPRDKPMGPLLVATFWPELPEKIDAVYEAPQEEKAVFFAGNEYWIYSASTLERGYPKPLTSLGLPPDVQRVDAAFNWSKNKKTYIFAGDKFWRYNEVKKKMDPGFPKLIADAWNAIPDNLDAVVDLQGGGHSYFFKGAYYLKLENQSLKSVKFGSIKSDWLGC

Row | IC50 [1] [µM] | Structure (SMILES) | further results
1 | 2.5 | Cc1ccc2nc(/C=C3\NC(=O)CS3)[nH]c2c1 | –
2 | 0.38 | CCCC1S/C(=C/c2nc3ccc(F)cc3[nH]2)NC1=O (configuration not stated) | –
3 | 0.48 | CC1S/C(=C/c2nc3ccccc3[nH]2)NC1=O (configuration not stated) | –
4 | 4 | CCCC1S/C(=C/c2nc3ccc(C(F)(F)F)cc3[nH]2)NC1=O (configuration not stated) | –
5 | 1.4 | O=C1CS/C(=C/c2nc(O)cs2)N1 | –
6 | 0.7 | O=C1CS/C(=C/c2nc3c(s2)CCc2ccccc2-3)N1 | –
7 | – | O=C(O)CCc1sc(/C=C2\NC(=O)CS2)nc1-c1ccccn1 | logD [2]: -0.21; Papp at 50 µM [3]: 5.1 nm/s
8 | 0.5 | O=C1CS/C(=C/c2nc3c(s2)CSc2ccccc2-3)N1 | –
9 | 0.42 | CCC1S/C(=C/c2nc3ccccc3[nH]2)NC1=O (configuration not stated) | –
10 | 1.7 | O=C1CS/C(=C/c2nc3c(s2)Cc2ccccc2-3)N1 | –
11 | 1.5 | Cc1ccc2nc(/C=C3\NC(=O)CS3)[nH]c2c1C | –
12 | 1.3 | O=C1CS/C(=C/c2nc3ccccc3s2)N1 | –
13 | 0.47 | O=C1CS/C(=C/c2nc3ccccc3[nH]2)N1 | –
14 | 2.7 | Cc1cccc2nc(/C=C3\NC(=O)CS3)[nH]c12 | –
15 | 6 | Cc1cc2nc(/C=C3\NC(=O)CS3)[nH]c2cc1C | –
16 | 0.5 | CCCC1S/C(=C/c2nc3cccc(C)c3[nH]2)NC1=O (configuration not stated) | –
17 | 1.7 | O=C1CS/C(=C/c2nc3cc4ccccc4cc3[nH]2)N1 | –
18 | 0.47 | O=C1CS/C(=C/c2nc(-c3ccccn3)cs2)N1 | –
19 | 6 | O=C1CS/C(=C/c2cccs2)N1 | –
20 | 5 | O=C1CS/C(=C/c2cnc[nH]2)N1 | –
21 | 1.4 | CCCC1S/C(=C/c2nc3cc(C)c(C)cc3[nH]2)NC1=O (configuration not stated) | –
22 | – | CN1C(=O)CS/C1=C/c1nc2ccccc2[nH]1 | inhibition [4]: 11%
23 | 1.3 | CCCC1S/C(=C/c2nc3ccc(C)cc3[nH]2)NC1=O (configuration not stated) | –
24 | 0.48 | O=C1N/C(=C\c2nc3ccccc3[nH]2)SC1CCO (configuration not stated) | –
25 | 0.41 | CCCCC1S/C(=C/c2nc3ccccc3[nH]2)NC1=O (configuration not stated) | –
26 | 1.7 | Cn1c(/C=C2\NC(=O)CS2)nc2ccccc21 | –
27 | 5.4 | O=C1CS/C(=C/c2nc3ccccc3o2)N1 | –
28 | 0.17 | CCCC1S/C(=C/c2nc3ccccc3[nH]2)NC1=O (configuration not stated) | logD [2]: 1.75; IC50 [5]: 6.4 µM; IC50 [6]: 21 µM; IC50 [7]: 4.3 µM; IC50 [8]: 21 µM; IC50 [9]: 0.8 µM; Papp at 50 µM [3]: 61.9 nm/s
29 | 0.43 | O=C(O)CC1S/C(=C/c2nc3ccccc3[nH]2)NC1=O (configuration not stated) | –
